pIC50: −log10 of the molar value. Where two headings read alike, the source gives them in different places.
Tests used:
Format in all cases: in vitro ADME
CYP1A2 = biological target: T1, CYP1A2 (Homo sapiens, UniProt P05177); test: direct inhibition of CYP450 in human liver microsomes
T1 construct: from tissue; host or cells: human liver microsomes (pooled in the time-dependent assay)
T1 sequence (P05177 1-516): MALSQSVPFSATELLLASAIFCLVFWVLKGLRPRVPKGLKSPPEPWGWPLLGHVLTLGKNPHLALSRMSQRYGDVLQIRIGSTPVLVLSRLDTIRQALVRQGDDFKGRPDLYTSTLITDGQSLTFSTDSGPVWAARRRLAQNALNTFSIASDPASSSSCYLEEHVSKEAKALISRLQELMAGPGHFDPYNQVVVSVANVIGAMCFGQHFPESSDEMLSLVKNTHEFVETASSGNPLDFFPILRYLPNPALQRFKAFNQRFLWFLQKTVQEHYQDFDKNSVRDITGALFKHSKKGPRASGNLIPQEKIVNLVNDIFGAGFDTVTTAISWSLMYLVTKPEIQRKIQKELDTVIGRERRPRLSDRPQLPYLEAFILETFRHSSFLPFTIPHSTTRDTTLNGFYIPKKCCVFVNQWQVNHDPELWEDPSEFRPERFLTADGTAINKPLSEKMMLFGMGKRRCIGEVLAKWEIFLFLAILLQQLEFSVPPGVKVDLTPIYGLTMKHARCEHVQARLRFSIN
Protocol: (§1) Direct inhibition: […] A Perspective of the Pharmaceutical Research and Manufacturers of America”, Drug Metabolism and Disposition, 37 (7): 1355, 2009). For 3A4, the % activity was measured using both midazolam and testosterone as probes. Each compound at 3, 10, and 50 μM was incubated with HLM, NADPH and CYP isoenzyme specific probe substrates at 37° C. Inhibition of the probe substrate metabolism was quantified using LC/MS/MS. […] Known chemical inhibitors specific for the individual CYP isoenzymes were evaluated in parallel as positive controls and these compounds produced CYP inhibition consistent with published results (Walsky & Obach RS. “Validated assays for human cytochrome P450 activities”. Drug Metab Dispos. 32(6):647-60, 2004). Note that, in Tables 6 and 7, the “Compound No” corresponds to the compound numbers in Table 1.

CYP2B6 = biological target: T2, CYP2B6 (Homo sapiens, UniProt P20813); test: as above; details: for activity at 3 µM / activity at 10 µM / activity at 50 µM: % of non-inhibited control, read-out: CYP2B6 T0 % activity; for pIC50: estimated from 3, 10, 50 uM, read-out: CYP2B6 T0 estimated IC50
T2 construct: from tissue; host or cells: human liver microsomes (pooled in the time-dependent assay)
T2 sequence (P20813 1-491): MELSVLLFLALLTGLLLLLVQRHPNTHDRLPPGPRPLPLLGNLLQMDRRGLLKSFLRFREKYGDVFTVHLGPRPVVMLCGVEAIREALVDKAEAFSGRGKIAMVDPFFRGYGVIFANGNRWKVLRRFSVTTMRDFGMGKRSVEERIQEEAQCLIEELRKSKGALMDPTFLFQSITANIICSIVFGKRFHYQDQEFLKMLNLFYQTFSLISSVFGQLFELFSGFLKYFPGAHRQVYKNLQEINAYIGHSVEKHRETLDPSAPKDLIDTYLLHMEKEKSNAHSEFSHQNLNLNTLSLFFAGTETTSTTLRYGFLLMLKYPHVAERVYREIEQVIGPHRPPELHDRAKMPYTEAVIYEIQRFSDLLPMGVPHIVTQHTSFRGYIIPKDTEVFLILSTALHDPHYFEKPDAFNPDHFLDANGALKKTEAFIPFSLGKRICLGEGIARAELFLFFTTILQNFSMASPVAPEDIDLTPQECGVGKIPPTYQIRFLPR
Protocol: as §1

CYP2C19 = biological target: T3, CYP2C19 (Homo sapiens, UniProt P33261); test: as above; details: for activity at 3 µM / activity at 10 µM / activity at 50 µM: % of non-inhibited control, read-out: CYP2C19 T0 % activity; for pIC50: estimated from 3, 10, 50 uM, read-out: CYP2C19 T0 estimated IC50
T3 construct: from tissue; host or cells: human liver microsomes (pooled in the time-dependent assay)
T3 sequence (P33261 whole entry): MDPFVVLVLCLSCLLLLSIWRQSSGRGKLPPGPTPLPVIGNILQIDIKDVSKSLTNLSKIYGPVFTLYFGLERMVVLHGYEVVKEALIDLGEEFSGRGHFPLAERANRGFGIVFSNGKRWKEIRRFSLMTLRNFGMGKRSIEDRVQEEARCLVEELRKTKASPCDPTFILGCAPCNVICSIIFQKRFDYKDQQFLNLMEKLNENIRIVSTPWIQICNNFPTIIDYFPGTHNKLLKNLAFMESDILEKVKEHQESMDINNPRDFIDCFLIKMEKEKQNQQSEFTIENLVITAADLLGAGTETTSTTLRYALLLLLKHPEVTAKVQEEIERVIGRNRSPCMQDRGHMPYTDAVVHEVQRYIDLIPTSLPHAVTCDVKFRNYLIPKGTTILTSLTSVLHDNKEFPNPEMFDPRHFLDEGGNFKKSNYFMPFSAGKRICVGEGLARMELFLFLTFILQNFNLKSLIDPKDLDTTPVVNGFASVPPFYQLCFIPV
Protocol: as §1

CYP2C9 = biological target: T4, CYP2C9 (Homo sapiens, UniProt P11712); test: as above; details: for activity at 3 µM / activity at 10 µM / activity at 50 µM: % of non-inhibited control, read-out: CYP2C9 T0 % activity; for pIC50: estimated from 3, 10, 50 uM, read-out: CYP2C9 T0 estimated IC50
T4 construct: from tissue; host or cells: human liver microsomes (pooled in the time-dependent assay)
T4 sequence (P11712 whole entry): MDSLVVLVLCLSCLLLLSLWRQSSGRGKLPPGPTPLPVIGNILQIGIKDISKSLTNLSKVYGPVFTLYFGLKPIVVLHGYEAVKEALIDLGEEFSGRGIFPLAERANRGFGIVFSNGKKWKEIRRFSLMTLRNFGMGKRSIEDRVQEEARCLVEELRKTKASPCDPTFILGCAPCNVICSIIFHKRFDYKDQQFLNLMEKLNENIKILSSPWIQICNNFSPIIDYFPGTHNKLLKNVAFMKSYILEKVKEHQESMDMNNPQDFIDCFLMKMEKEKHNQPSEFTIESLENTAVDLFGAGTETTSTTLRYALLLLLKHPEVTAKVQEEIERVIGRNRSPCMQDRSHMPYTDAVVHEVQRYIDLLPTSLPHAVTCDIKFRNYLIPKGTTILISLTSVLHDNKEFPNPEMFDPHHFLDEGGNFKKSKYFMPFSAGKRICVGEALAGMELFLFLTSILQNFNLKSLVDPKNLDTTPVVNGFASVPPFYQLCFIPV
Protocol: as §1

CYP2D6 = biological target: T5, CYP2D6 (Homo sapiens, UniProt P10635); test: as above; details: for activity at 3 µM / activity at 10 µM / activity at 50 µM: % of non-inhibited control, read-out: CYP2D6 T0 % activity; for pIC50: estimated from 3, 10, 50 uM, read-out: CYP2D6 T0 estimated IC50
T5 construct: from tissue; host or cells: human liver microsomes (pooled in the time-dependent assay)
T5 sequence (P10635 whole entry): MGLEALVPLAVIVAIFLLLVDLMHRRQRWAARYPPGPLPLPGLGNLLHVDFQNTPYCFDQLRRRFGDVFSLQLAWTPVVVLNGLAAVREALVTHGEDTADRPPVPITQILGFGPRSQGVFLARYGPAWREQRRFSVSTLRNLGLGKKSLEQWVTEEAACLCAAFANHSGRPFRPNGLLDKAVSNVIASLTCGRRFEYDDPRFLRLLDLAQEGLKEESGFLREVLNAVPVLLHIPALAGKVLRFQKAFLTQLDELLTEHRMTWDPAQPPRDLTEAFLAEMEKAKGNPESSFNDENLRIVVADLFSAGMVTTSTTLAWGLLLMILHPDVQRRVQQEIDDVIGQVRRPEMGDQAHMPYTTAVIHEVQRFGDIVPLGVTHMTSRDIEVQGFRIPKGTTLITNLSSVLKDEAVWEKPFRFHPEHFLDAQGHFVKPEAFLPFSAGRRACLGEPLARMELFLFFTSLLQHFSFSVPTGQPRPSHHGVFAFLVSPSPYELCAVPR
Protocol: as §1

CYP3A4 = biological target: T6, CYP3A4 (Homo sapiens, UniProt P08684); test: direct inhibition of CYP450 in human liver microsomes (midazolam and testosterone probes)
T6 construct: from tissue; host or cells: human liver microsomes (pooled in the time-dependent assay)
T6 sequence (P08684 whole entry): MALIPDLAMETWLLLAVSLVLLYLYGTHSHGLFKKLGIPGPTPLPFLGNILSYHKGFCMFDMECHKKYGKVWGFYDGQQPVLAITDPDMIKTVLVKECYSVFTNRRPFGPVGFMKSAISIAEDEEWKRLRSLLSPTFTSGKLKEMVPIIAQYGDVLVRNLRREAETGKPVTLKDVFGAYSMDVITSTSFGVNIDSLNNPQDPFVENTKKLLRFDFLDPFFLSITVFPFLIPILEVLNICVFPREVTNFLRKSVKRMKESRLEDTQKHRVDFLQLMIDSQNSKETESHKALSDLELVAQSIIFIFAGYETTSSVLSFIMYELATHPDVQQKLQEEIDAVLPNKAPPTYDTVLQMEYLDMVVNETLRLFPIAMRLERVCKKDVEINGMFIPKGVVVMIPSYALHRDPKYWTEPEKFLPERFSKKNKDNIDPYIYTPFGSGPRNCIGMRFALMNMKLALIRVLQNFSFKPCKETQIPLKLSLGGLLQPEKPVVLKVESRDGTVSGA
Protocol: as §1

[1] = midazolam probe, read-out: CYP3A4-M T0 % activity
[2] = testosterone probe, read-out: CYP3A4-T T0 % activity
[3] = midazolam probe, read-out: CYP3A4-M T0 estimated IC50
[4] = testosterone probe, read-out: CYP3A4-T T0 estimated IC50

| Compound | activity at 3 µM (CYP2B6) [%] | activity at 10 µM (CYP2B6) [%] | activity at 50 µM (CYP2B6) [%] | pIC50 (CYP2B6) | activity at 3 µM (CYP2C19) [%] | activity at 10 µM (CYP2C19) [%] | activity at 50 µM (CYP2C19) [%] | pIC50 (CYP2C19) | activity at 3 µM (CYP2C9) [%] | activity at 10 µM (CYP2C9) [%] | activity at 50 µM (CYP2C9) [%] | pIC50 (CYP2C9) | activity at 3 µM (CYP2D6) [%] | activity at 10 µM (CYP2D6) [%] | activity at 50 µM (CYP2D6) [%] | pIC50 (CYP2D6) | activity at 3 µM (CYP3A4; [1]) [%] | activity at 3 µM (CYP3A4; [2]) [%] | activity at 10 µM (CYP3A4; [1]) [%] | activity at 10 µM (CYP3A4; [2]) [%] | also measured |
| --- | --- | --- | --- | --- | --- | --- | --- | --- | --- | --- | --- | --- | --- | --- | --- | --- | --- | --- | --- | --- | --- |
| [2H]c1nc([2H])n(-c2nc(C)cc(C(=O)N[C@H]3CC[C@H](OCCOC)CC3)n2)c1[2H] [Comparator Compound A, reference compound] | 103 | 98 | 57 | < 4.30 | 77 | 49 | 17 | ~5.00 | 88 | 64 | 24 | > 4.30 | 95 | 82 | 42 | > 4.30 | 98 | 100 | 99 | 97 | activity at 3 µM (CYP1A2; 3 uM, human liver microsomes, % of non-inhibited control, read-out: CYP1A2 T0 % activity): 98%; activity at 10 µM (CYP1A2; 10 uM, human liver microsomes, % of non-inhibited control, read-out: CYP1A2 T0 % activity): 98%; activity at 50 µM (CYP1A2; 50 uM, human liver microsomes, % of non-inhibited control, read-out: CYP1A2 T0 % activity): 92%; pIC50 (CYP1A2; human liver microsomes, estimated from 3, 10, 50 uM, read-out: CYP1A2 T0 estimated IC50): < 4.30; activity at 50 µM (CYP3A4; [1]): 91%; activity at 50 µM (CYP3A4; [2]): 103%; pIC50 (CYP3A4; [3]): < 4.30; pIC50 (CYP3A4; [4]): < 4.30 |
| CO[C@H]1CC[C@H](NC(=O)c2nccc(-n3ccnc3)n2)CC1 [Compound 145, 4-(1H-Imidazol-1-yl)-N-((1r,4r)-4-methoxycyclohexyl)pyrimidine-2-carboxamide] | 101 | 98 | 99 | < 4.30 | 92 | 93 | 89 | < 4.30 | 97 | 99 | 96 | < 4.30 | 93 | 73 | 47 | > 4.30 | 99 | 96 | 89 | 98 | pIC50 (CYP1A2): < 4.30; activity at 3 µM (CYP1A2; human, microsomes): 94%; activity at 10 µM (CYP1A2; human, microsomes): 92%; activity at 50 µM (CYP1A2; human, microsomes): 79%; activity at 50 µM (CYP3A4; [1]): 75%; activity at 50 µM (CYP3A4; [2]): 95%; pIC50 (CYP3A4; [3]): < 4.30; pIC50 (CYP3A4; [4]): < 4.30 |

Source: US20230116972A1, “CD38 MODULATORS AND METHODS OF USE THEREOF” (Cytokinetics, Inc., priority 2021, published 2023)
